Drawing on PubChem BioAssay AID328 (DTP/NCI, 2004), this text covers T/C for 22 compounds.

Where “and” joins values, the source holds several entries; their conditions need not be identical. Equal values may be shown once. Toxic doses and inconclusive results are not listed.

The test has as its system BDF1 mice, P388 leukemia ip, median survival T/C. Put plainly: NCI In Vivo Anticancer Drug Screen. Data for tumor model P388 Leukemia (intraperitoneal) in B6D2F1 (BDF1) mice. The following applies: endpoint: median survival time, higher = longer survival. In a few lines:
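Survival ratio, drug arm over vehicle arm, in mice with a transplanted tumour.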

The mark [1] stands for this setting: dose: 25.0 mg/kg/injection, schedule: Q01DX009 (ip), vehicle: saline with Tween-80.
[2] abbreviates: dose: 50.0 mg/kg/injection, schedule: Q01DX009 (ip), vehicle: saline with Tween-80.
[3] abbreviates: dose: 100.0 mg/kg/injection, schedule: Q01DX009 (ip), vehicle: saline with Tween-80.
Setting [4] is: dose: 200.0 mg/kg/injection, schedule: Q01DX009 (ip), vehicle: saline with Tween-80.
Setting [5] is: dose: 400.0 mg/kg/injection, schedule: Q01DX009 (ip), vehicle: saline with Tween-80.
Where [6] appears, read: dose: 100.0 mg/kg/injection, schedule: Q04DX003 (ip), vehicle: saline with Tween-80.
Where [7] appears, read: dose: 200.0 mg/kg/injection, schedule: Q04DX003 (ip), vehicle: saline with Tween-80.
Where [8] appears, read: dose: 400.0 mg/kg/injection, schedule: Q04DX003 (ip), vehicle: saline with Tween-80.
Where [9] appears, read: dose: 12.5 mg/kg/injection, schedule: Q01DX009 (ip), vehicle: saline with Tween-80.
[10] abbreviates: dose: 25.0 mg/kg/injection, schedule: Q01DX009 (ip), vehicle: saline.
Setting [11] is: dose: 50.0 mg/kg/injection, schedule: Q01DX009 (ip), vehicle: saline.
The mark [12] stands for this setting: dose: 50.0 mg/kg/injection, schedule: Q04DX003 (ip), vehicle: saline.
Setting [13] is: dose: 100.0 mg/kg/injection, schedule: Q04DX003 (ip), vehicle: saline.
[14] abbreviates: dose: 400.0 mg/kg/injection, schedule: Q04DX003 (ip), vehicle: saline.

`C[C@H](CCC[C@H](C)OS(=O)(=O)c1ccccc1)OS(=O)(=O)c1ccccc1`: the T/C is 117 % of control under setting [1]; 99 % of control and 116 % of control under setting [2]; 155 % of control under setting [3]; 156 % of control and 180 % of control under setting [4]; 182 % of control under setting [5].

As for `O=C(O)c1ccccc1C(=O)Nc1cc(C(F)(F)F)ccc1Cl`, the T/C under setting [6] was 90 % of control, the T/C under setting [7] is 104 % of control and the T/C under setting [8] was 118 % of control.

Regarding `COc1ccc2nc3cc(Cl)ccc3c(NCCNCCNCCNc3c4ccc(Cl)cc4nc4ccc(OC)cc34)c2c1`, the T/C is, setting by setting: under setting [9], 151 % of control; under setting [1], 171 % of control; under setting [2], 161 % of control.

For `O=C(Nc1ncc([N+](=O)[O-])s1)c1cccc([N+](=O)[O-])c1`, the T/C was 99 % of control (dose: 6.25 mg/kg/injection, schedule: Q01DX009 (ip), vehicle: saline with Tween-80); 94 % of control under setting [9]; 93 % of control under setting [1].

Turning to `CCC(c1ccc(O)cc1)C(CC)c1ccc(OC)cc1` (stereo unspecified), the T/C is 104 % of control under setting [2], 118 % of control under setting [3] and 109 % of control under setting [4].

On to `C=CCN1C=CC(=C/C=C(\C#N)C(=O)OCC)C=C1`, for which the T/C under setting [2] was 99 % of control, the T/C under setting [3] was 91 % of control and the T/C under setting [4] is 99 % of control.

As to `CC(=O)CC(C)(C)c1ccccc1`, the T/C under setting [10] is 118 % of control; the T/C under setting [11] was 111 % of control; the T/C under setting [12] is 105 % of control; the T/C under setting [13] is 105 % of control; the T/C (dose: 200.0 mg/kg/injection, schedule: Q01DX009 (ip), vehicle: saline) is 93 % of control; the T/C (dose: 200.0 mg/kg/injection, schedule: Q04DX003 (ip), vehicle: saline) is 121 % of control. Further, the T/C under setting [14] is 102 % of control.

As to `C[C@H](N)C(=O)N[C@@H]1[C@H]2C(=C(O)C[C@@H](O)[C@@H]2O)C(=O)O[C@@H]1C`, the T/C reads like this: (dose: 100.0 mg/kg/injection, schedule: Q01DX010 (ip), vehicle: saline) 162 % of control; (dose: 133.0 mg/kg/injection, schedule: Q04DX003 (ip), vehicle: saline) 112 % of control; (dose: 266.0 mg/kg/injection, schedule: Q04DX003 (ip), vehicle: saline) 119 % of control; (dose: 400.0 mg/kg/injection, schedule: Q01DX010 (ip), vehicle: saline) 162 % of control; (dose: 532.0 mg/kg/injection, schedule: Q04DX003 (ip), vehicle: saline) 120 % of control; (dose: 800.0 mg/kg/injection, schedule: Q01DX010 (ip), vehicle: saline) 175 % of control. Also, the T/C (dose: 2428.0 mg/kg/injection, schedule: Q04DX003 (ip), vehicle: saline) was 166 % of control.

On to `O=C(N/N=C\c1ccc(N(CCCl)CCCl)cc1)c1cccnc1`, for which the T/C is 112 % of control (dose: 100.0 mg/kg/injection, schedule: Q01DX009 (ip), vehicle: gum acacia) and 172 % of control (dose: 200.0 mg/kg/injection, schedule: Q01DX009 (ip), vehicle: gum acacia).

With `C[n+]1ccc2ccccc2c1`, the T/C under setting [10] was 100 % of control; the T/C under setting [11] was 100 % of control; the T/C under setting [12] is 104 % of control; the T/C (dose: 100.0 mg/kg/injection, schedule: Q01DX009 (ip), vehicle: saline) was 104 % of control; the T/C under setting [13] was 100 % of control.

Take `CS(=O)(=O)N(c1ccccc1[N+](=O)[O-])S(C)(=O)=O`: the T/C is 109 % of control under setting [3]; 87 % of control under setting [6]; 100 % of control under setting [4]; 100 % of control under setting [7]; 104 % of control under setting [5]; 104 % of control under setting [8].

For the compound `S=c1nc[nH]c2c1ncn2CN1CCCCC1`, the T/C (dose: 66.0 mg/kg/injection, schedule: Q01DX009 (ip), vehicle: saline with Tween-80) is 122 % of control and the T/C (dose: 150.0 mg/kg/injection, schedule: Q01DX009 (ip), vehicle: saline with Tween-80) was 154 % of control.

On to `NNC(=O)NO`, for which the T/C is 95 % of control (dose: 25.0 mg/kg/injection, schedule: Q04DX003 (ip), vehicle: saline); 104 % of control under setting [12]; 100 % of control under setting [13].

For `CC(N)(/C=C/c1ccccc1)C(=O)O` (stereo unspecified), the T/C is, setting by setting: (dose: 50.0 mg/kg/injection, schedule: Q01DX005 (ip), vehicle: saline with Tween-80) 101 % of control; (dose: 100.0 mg/kg/injection, schedule: Q01DX005 (ip), vehicle: saline with Tween-80) 97 % of control; (dose: 200.0 mg/kg/injection, schedule: Q01DX005 (ip), vehicle: saline with Tween-80) 113 % of control.

In the case of `CCc1noc(CC)c1CC1=C2CCC3(C)CCC(C)(C)CC3C2(C)CCC1=O` (stereo unspecified), the T/C was 95 % of control (dose: 100.0 mg/kg/injection, schedule: Q01DX001 (ip), vehicle: saline with Tween-80); 90 % of control (dose: 200.0 mg/kg/injection, schedule: Q01DX001 (ip), vehicle: saline with Tween-80); 90 % of control (dose: 400.0 mg/kg/injection, schedule: Q01DX001 (ip), vehicle: saline with Tween-80).

Take `CCCCNC(C)(C)C(SSSC(c1ccc(C(F)(F)F)cc1)C(C)(C)NCCCC)c1ccc(C(F)(F)F)cc1` (stereo unspecified): the T/C is, setting by setting: under setting [13], 120 % of control; under setting [14], 120 % of control.

As for `S=P(S)(c1ccccc1)c1ccccc1`, the T/C by setting is: (dose: 80.5 mg/kg/injection, schedule: Q01DX009 (ip), vehicle: saline) 90 % of control; (dose: 106.26 mg/kg/injection, schedule: Q01DX009 (ip), vehicle: saline) 116 % of control; (dose: 241.5 mg/kg/injection, schedule: Q01DX009 (ip), vehicle: saline) 95 % of control.

In the case of `COC(=O)c1ccc(CSc2ccccc2NC(=S)Nc2cccc(SC)c2)o1`, the T/C reads like this: under setting [2], 90 % of control; under setting [3], 92 % of control; under setting [4], 90 % of control.

As for `O=C(Nc1ccc(Nc2ccncc2)cc1)c1ccc([N+](=O)[O-])cc1`, the T/C (dose: 100.0 mg/kg/injection, schedule: Q04DX003 (ip), vehicle: Klucel (hydroxypropylcellulose) (HPC)) was 90 % of control; the T/C (dose: 200.0 mg/kg/injection, schedule: Q04DX003 (ip), vehicle: Klucel (hydroxypropylcellulose) (HPC)) was 90 % of control; the T/C (dose: 400.0 mg/kg/injection, schedule: Q04DX003 (ip), vehicle: Klucel (hydroxypropylcellulose) (HPC)) is 118 % of control.

`CCCCNCCC(SSSC(CCNCCCC)c1ccc(Cl)cc1)c1ccc(Cl)cc1` (stereo unspecified): the T/C was 104 % of control (dose: 6.25 mg/kg/injection, schedule: Q04DX003 (ip), vehicle: saline with Tween-80); 100 % of control (dose: 12.5 mg/kg/injection, schedule: Q04DX003 (ip), vehicle: saline with Tween-80); 109 % of control (dose: 25.0 mg/kg/injection, schedule: Q04DX003 (ip), vehicle: saline with Tween-80).

In the case of `O=C(Nc1ccc2c(c1)OCO2)O/N=C\c1cccnc1`, the T/C (dose: 50.0 mg/kg/injection, schedule: Q04DX003 (ip), vehicle: saline with Tween-80) is 100 % of control; the T/C under setting [6] is 109 % of control; the T/C under setting [7] is 109 % of control.

Turning to `O=C(Nc1ccc([N+](=O)[O-])cc1)Nc1ccc([N+](=O)[O-])c(C(F)(F)F)c1`, the T/C is 87 % of control under setting [3]; 105 % of control and 117 % of control (dose: 110.0 mg/kg/injection, schedule: Q01DX009 (ip), vehicle: Klucel (hydroxypropylcellulose) (HPC)); 121 % of control (dose: 170.0 mg/kg/injection, schedule: Q01DX009 (ip), vehicle: Klucel (hydroxypropylcellulose) (HPC)); 95 % of control under setting [4]; 105 % of control (dose: 225.0 mg/kg/injection, schedule: Q01DX009 (ip), vehicle: Klucel (hydroxypropylcellulose) (HPC)); 100 % of control under setting [5].
